Test results published in patent US7332476B2, “Pyridyl substituted ketolide antibiotics” (Novartis AG, priority 2003, dated 2008).
In brackets after ≈: the same amount, converted by molar mass.

Tests used:
[1] = test system: Streptococcus pneumoniae Stpn_297-749; test: MIC, broth microdilution (NCCLS); type: cell-based; design: MIC, strain ID N: unit not given here; settings: strain ID N; broth microdilution
Procedure, shortened: (§1)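 NCCLS broth microdilution with 2-fold serial drug dilutions (methanol stocks diluted in water); inoculum 3×10^5–7×10^5 CFU/ml in CAMHB, with 2-5% lysed horse blood for S. pneumoniae. Incubation 18-24 h at 35° C., ambient air, except S. pneumoniae (5-10% CO2). MIC is lowest concentration preventing visible growth.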

[2] = test system: Streptococcus pneumoniae Stpn_49619; test: MIC, broth microdilution (NCCLS); type: cell-based; design: MIC, strain ID M: unit not given beside the values; settings: strain ID M; broth microdilution
Procedure, shortened: as §1

[3] = test system: Haemophilus influenzae Hain_2762; test: MIC, broth microdilution (NCCLS); type: cell-based; settings: strain ID L; broth microdilution; in µg/mL (unit assumed)
Procedure, shortened: (§2)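 MIC read visually as lowest drug concentration with no growth after 18-24 h at 35° C; ambient air for staphylococci and enterococci, 5-10% CO2 for H. influenzae. Inoculum 3×10^5–7×10^5 CFU/ml; CAMHB or Haemophilus Test Medium.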

[4] = test system: Staphylococcus aureus Stau_33591; test: MIC, broth microdilution (NCCLS); type: cell-based; settings: strain ID B; broth microdilution; unit assumed
Procedure, shortened: as §2

[5] = test system: Haemophilus influenzae Hain_960730503-3; test: MIC, broth microdilution (NCCLS); type: cell-based; settings: strain ID I; broth microdilution; in µg/mL (unit assumed)
Procedure, shortened: as §2

[6] = test system: Enterococcus faecalis Enfa_bc 11148-2; test: MIC, broth microdilution (NCCLS); type: cell-based; settings: strain ID F; broth microdilution; in µg/mL (unit assumed)
Procedure, shortened: as §2

[7] = test system: Haemophilus influenzae Hain_960820544-3; test: MIC, broth microdilution (NCCLS); type: cell-based; settings: strain ID J; broth microdilution; in µg/mL (unit assumed)
Procedure, shortened: as §2

[8] = test system: Haemophilus influenzae Hain_953460299-3; test: MIC, broth microdilution (NCCLS); type: cell-based; settings: strain ID K; broth microdilution; in µg/mL (unit assumed)
Procedure, shortened: as §2

[9] = test system: Streptococcus pneumoniae Stpn_280-962; test: MIC, broth microdilution (NCCLS); type: cell-based; design: MIC, strain ID O: unit not given beside the values; settings: strain ID O; broth microdilution
Procedure, shortened: as §1

[10] = In vivo pharmacokinetic study in rats, whole lung (IV and PO); settings: male, Sprague-Dawley, 5 mg/kg, rat
Method: (§3) Animal Models. A total of 54 male Sprague-Dawley rats, weighing 200 grams in average, were evaluated for pharmacokinetic studies of representative pyridyl substituted ketolides. Rats were under overnight food restriction and received water ad libitum. Rats were acclimated for approximately 5 days before antibiotic administration.
(§4) Antibiotic Administration. Rats were given bolus administration through (IV) and oral (PO) routes. Representative pyridyl substituted ketolides and telithromycin, for comparison, were diluted in 0.85% saline to a concentration of 15.0 mg/ml, and the resulting pH was adjusted using 1N acetic acid until the compound was in solution. Approximately 200 microliters of the compound solution was administered to the rats. The target dose for IV and PO administration was 5 mg/kg and 15 mg/kg, respectively.
(§5) Sample Collection. Plasma and whole lung samples were collected from the rats. Plasma samples were obtained from blood samples by centrifugation at 3000 RPM for 10 min. Heparin was added in the plasma as an anticoagulant. Whole lung samples were homogenized in deionized water. Samples were stored at −80° C. A total of 9 time points were collected in triplicate at 0.083, 0.25, 0.5, 1, 2, 4, 6, 8, and 24 hrs. Ketolide concentrations in plasma and lung were determined by well-established non-GLP LC-MS-MS methods. PK parameters were estimated from the raw bioanalytical data using WinNolin software (Version 4.0, Pharsight Corporation, CA). […] All representative compounds were compared to telithromycin.

[11] = test system: Streptococcus pyogenes Stpy_8668; test: MIC, broth microdilution (NCCLS); type: cell-based; design: MIC, strain ID G: unit not given beside the values; settings: strain ID G; broth microdilution
Procedure, shortened: as §1

[12] = test system: Staphylococcus epidermidis Step_14990; test: MIC, broth microdilution (NCCLS); type: cell-based; settings: strain ID C; broth microdilution; in µg/mL (unit assumed)
Procedure, shortened: as §1

[13] = test system: Staphylococcus aureus Stau_29213; test: MIC, broth microdilution (NCCLS); type: cell-based; settings: strain ID A; broth microdilution; in µg/mL (unit assumed)
Procedure, shortened: as §1

[14] = test system: Streptococcus pneumoniae Stpn_Erm S 4297; test: MIC, broth microdilution (NCCLS); type: cell-based; settings: strain ID Q; broth microdilution
Procedure, shortened: as §1

[15] = test system: Enterococcus faecalis Enfa_29212; test: MIC, broth microdilution (NCCLS); type: cell-based; settings: strain ID E; broth microdilution
Procedure, shortened: as §1

[16] = test system: Staphylococcus epidermidis Step_f50654; test: MIC, broth microdilution (NCCLS); type: cell-based; settings: strain ID D; broth microdilution; in µg/mL (unit assumed)
Procedure, shortened: as §1

[17] = test system: Haemophilus influenzae Hain_49247; test: MIC, broth microdilution (NCCLS); type: cell-based; settings: strain ID H; broth microdilution; unit assumed
[18] = test system: S. pneumoniae Stpn_Erm 6849; test: MIC, broth microdilution (NCCLS); type: cell-based, Streptococcus pneumoniae; settings: strain ID P; broth microdilution; in µg/mL (unit assumed)
Procedure, shortened: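 S. pneumoniae MIC by NCCLS broth microdilution in cation-adjusted Mueller-Hinton broth with 2-5% lysed horse blood, inoculum 3×10^5–7×10^5 CFU/ml, 2-fold drug dilutions. Incubated 18-24 hours at 35° C. in 5-10% CO2; MIC is lowest concentration preventing visible growth.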

[19] = In vivo pharmacokinetic study in rats, plasma (IV and PO); design: species or system Sprague-Dawley rats; settings: rat
Method: as §3, §4, §5

In the case of `C=C[C@]12OC(=O)N(CCCCn3cnc(-c4cnccc4Cl)c3)[C@@H]1[C@@H](C)C(=O)[C@H](C)C[C@](C)(OC)[C@H](OC1O[C@H](C)C[C@H](N(C)C)[C@H]1O)[C@@H](C)C(=O)[C@@H](C)C(=O)O[C@@H]2CC` (stereo partly drawn) [XXX], the “MIC, strain ID N” value [1] is reported as “=0.05”, the “MIC, strain ID M” value [2] is reported as “=0.05” and the “MIC, strain ID L” value [3] is reported as 0.78. For the same compound, the MIC, strain ID B [4] was > 50 µg/mL, the “MIC, strain ID I” value [5] was 6.25 and the “MIC, strain ID F” value [6] was 0.4. For the same compound, the “MIC, strain ID J” value [7] was 6.25, the “MIC, strain ID K” value [8] was 3.13 and the “MIC, strain ID O” value [9] was “=0.05”. For the same compound, the half-life ([10]; IV, whole lung, read-out: t1/2, IV Lung (converted)) was 1.2 h, the Kp ([10]; lung/plasma, iv, read-out: L/P ratio, IV) was 75 and the “MIC, strain ID G” value [11] was “=0.05”. For the same compound, the “MIC, strain ID C” value [12] was 0.2, the “MIC, strain ID A” value [13] was 0.2 and the “MIC, strain ID Q” value [14] was “=0.05”. For the same compound, the “MIC, strain ID E” value [15] was “=0.05”, the “MIC, strain ID D” value [16] was 0.1 and the MIC, strain ID H [17] was 3.13 µg/mL (≈ 3.65 µM). For the same compound, the “MIC, strain ID P” value [18] was 0.4, the half-life ([19]; male, Sprague-Dawley, 5 mg/kg, IV, plasma, read-out: t1/2, IV Plasma (converted)) was 1 h and the AUC ([19]; male, Sprague-Dawley, plasma, IV, dose IV = 5 mg/kg (Compound XIV: IV = 15)) was 2100 ng·h/mL. The clearance ([19]; male, Sprague-Dawley, plasma, intravenous) was 121 mL/min/kg, the Vd ([19]; male, Sprague-Dawley, plasma, intravenous, read-out: Vss) was 8 L/kg and the “F, PO” value ([19]; PO = 15 mg/kg) was 21%.
